Here are results for two molecules from patent publication US20110144027A1, “PHARMACEUTICAL COMPOSITIONS FOR PROMOTING WOUND HEALING” (priority 2006, published 2011).

Data set [1] is described as follows: Systemic absorption in patients (plasma HPLC/MS/MS assay). It counts as in vivo, human. The following applies: any topical dose concentration (5, 50, 500 μg/g), initial, day 16 and day 28, LLOQ 1.0 ng/mL. The source says:
(§1) Testing of concentrations of 2-[2-(4-Chlorophenyl)ethoxy]adenosine in blood plasma: 2-[2-(4-Chlorophenyl)ethoxy]adenosine concentrations in blood plasma taken from a patient may be quantitated. A non-limiting example of an assay to quantitate 2-[2-(4-Chlorophenyl)ethoxy]adenosine in blood plasma is an HPLC/MS/MS bioanalytical assay. The assay used an organic precipitation of protein accomplished with addition of acetonitrile to plasma followed by a thorough mixing and centrifugation to separate the denatured protein and supernatant. Aliquots of the supernatant were injected onto a HPLC system equipped with a triple quadrapole mass spectrometer which provided highly specific and sensitive detection of the molecular ion of interest. Concentrations of 2-[2-(4-Chlorophenyl)ethoxy]adenosine were determined from peak area ratios of 2-[2-(4-Chlorophenyl)ethoxy]adenosine and the internal standard using weighted linear regression curves (1/×). The assay was highly robust and reproducible within the validated range of 1.0 to 100 ng/mL.
2-[2-(4-Chlorophenyl)ethoxy]adenosine was administered to patients with chronic, neuropathic, diabetic foot ulcers (DFU). […]

In data set [2] the test system is wound. The following applies: healthy BALB/C mice; cited from earlier work.
The nature of data set [3]: Toxicokinetics after topical application on full-thickness wounds in minipigs. The data set is classed as in vivo, Gottingen SPF minipigs. The following applies: for AUC(0-t) / Cmax / half-life / Tmax: Gottingen SPF, minipig, plasma, topical or ocular, 2000 ug/day, topical 2000 μg/day (500 μg/g Gel), Day 6; for AUC(0-t): read-out: AUC24 h (Mean ± CV); for Cmax: read-out: Cmax (Mean ± CV); for half-life: read-out: T1/2 (Mean ± CV) (converted); for Tmax: read-out: Tmax (Mean ± CV).
Excerpt: as §1
The objective of this study was to assess the local and the systemic toxicity of the 2-[2-(4-chlorophenyl)ethoxy]adenosine formulation of the instant invention. The testing occurred in Gottingen SPF minipigs. 20 μg/g, 100 μg/g and 500 μg/g concentration of the 2-[2-(4-chlorophenyl)ethoxy]adenosine formulation were created using the methods described in Example I. The 20 μg/g and 100 μg/g formulation are described below. The components of the 500 μg/g formulation and the placebo control were as described in Example 1.
The total dosage of 2-[2-(4-chlorophenyl)ethoxy]adenosine per minipig ranged from 80 μg to 2000 μg/day. The formulation was administered topically once per day in 1 mL (1 g) doses at 20 μg/g, 100 μg/g and 500 μg/g concentration per wound per administration on surgically established full-thickness wounds until wound closure. Each minipig had multiple (4) wounds that received treatment.
A total of 40 Gottingen SPF minipigs (20 males and 20 females) were included in the study. The animals were allocated into four groups each of 4 males and 4 females. In addition, 4 animals (2 of each sex per group), were included as recovery animals for the control/placebo group (Group 1) and the high-dose group (Group 4).
From Day 1 through Day 13, 2-[2-(4-chlorophenyl)ethoxy]adenosine formulation at either 20 μg/g, 100 μg/g or 500 μg/g concentration was applied topically on surgically established circular full-thickness wounds (wound diameter 20 mm; 4 wounds per animal) on a daily basis in a dose volume of approximately 1 mL per wound until wound closure. The dose levels and animal numbers are provided Table 20.
Toxicokinetic sampling occurred on Day 6 at the following time points: pre-treatment, and 0.5, 1, 3, 5, 7, 9, 12 and 24 hours post-treatment. […] Non-compartmental pharmacokinetic analysis of plasma 2-[2-(4-chlorophenyl)ethoxy]adenosine concentration profiles in Groups 2, 3, and 4 (low-, mid- and high-dose) animals yielded pertinent pharmacokinetic parameters, which are summarized by treatment and gender in Table 20.

Data set [4] deals with wound. The following applies: rats; cited from earlier work.

Like-named read-outs stand apart in the source and are kept apart here.

`Nc1nc(OCCc2ccc(Cl)cc2)nc2c1ncn2[C@@H]1O[C@H](CO)[C@@H](O)[C@H]1O` [2-[2-(4-chlorophenyl)ethoxy]adenosine]: the “systemic absorption (blood plasma, HPLC/MS/MS assay)” value in data set [1] is reported as “No systemic absorption”. Besides, in the data set on wound [2], the wound healing entry is recorded as “promote wound healing”. Further, in data set [3] (Female minipigs), the AUC(0-t) was determined as 6.65 ng·h/mL, the Cmax is 0.45 ng/mL, the half-life is 28.4 h and the Tmax is 7.5 h. Moreover, in data set [3] (Male minipigs), the AUC(0-t) was 7.25 ng·h/mL, the Cmax stood at 0.46 ng/mL, the half-life was 122 h and the Tmax was determined as 7.8 h. Besides, in data set [3] (minipigs, wound healing phase, 80-2000 μg/day), the “absorption into the systemic circulation from topical administration in open wounds” value is reported as “minimal”.

In the case of `CCNC(=O)[C@H]1O[C@@H](n2cnc3c(N)nc(NCCc4ccc(CCC(=O)O)cc4)nc32)[C@H](O)[C@@H]1O` [CGS 21680, 2-[p-(carboxyethyl)phenylethylamino]-5′-N-ethylcarboxamidoadenosine], the “rate of wound closure” value with wound [4] is listed as “increase the rate of wound closure”.
